The values below come from article PMC12147034, “Identification of alkynyl nicotinamide HSN748 as a RET solvent-front mutant inhibitor with intracranial efficacy” (RSC Medicinal Chemistry, 2025).

Residue numbers refer to the chain shown, from its start. “And” between values parts separate entries of the source, which are not always exact repeats. Equal values may be shown once.

Holding throughout (format): cell-based
The test system of one assay is B/KR(G810C/R/S) cells. Put plainly: Cell viability assay, RET solvent-front mutants stated jointly. Conditions: read-out: IC50s for B/KR(G810C/R/S) cells; stated jointly for G810C, G810R and G810S. As for the experimental part: (§1) BaF3 cell lines expressing a flag-tagged KIF5B-RET (B/KR) and the KIF5B-RET containing G810C, G810R, G810S, V804M, V804L mutations were as reported.[8,13,17,21–23] […] Infected cells were cultured for two weeks, and cells with high GFP intensity were sorted into a 96-well plate (1 cell/well). After the expansion of growing cell lines, they were screened for a high level of luciferase activity by luminescence imaging after exposure to D-luciferin. IMR-90 cells were from ATCC.
(§2) The TEL-VEGFR2 cDNA was then subcloned into pLentP lentiviral vector.[21] and BaF3/TEL-VEGFR2 (B/TV) cells were generated by infecting BaF3 cells with the lentiviral TEL-VEGFR2 as described. Cell viability assay was performed using CellTiter-Glo reagent (G7573, Promega, Madison, WI, USA) after 3 days of drug treatment as described for BaF3-derived cells and 5 days for IMR-90 cells.

The target in assay [1] is T1, B/KR(V804M) cells, KIF5B-RET V804M (Homo sapiens, UniProt P07949+P33176, V804M).
T1 construct: FLAG; expressed in transfected cells; host or cells: BaF3
T1 sequence (P07949 713-1063 V804M limits assumed): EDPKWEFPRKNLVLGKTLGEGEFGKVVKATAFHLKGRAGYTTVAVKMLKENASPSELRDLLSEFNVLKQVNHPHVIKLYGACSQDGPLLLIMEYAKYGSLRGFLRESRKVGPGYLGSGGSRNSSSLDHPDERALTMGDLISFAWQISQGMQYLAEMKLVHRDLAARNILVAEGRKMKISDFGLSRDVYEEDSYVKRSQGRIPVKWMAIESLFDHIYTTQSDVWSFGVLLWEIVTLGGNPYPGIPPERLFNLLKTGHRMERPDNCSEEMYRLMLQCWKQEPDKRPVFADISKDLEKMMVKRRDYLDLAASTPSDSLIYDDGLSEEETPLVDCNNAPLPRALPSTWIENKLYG
Put plainly: Cell viability assay (CellTiter-Glo, 3 days) in B/KR(V804M) cells. As for the experimental part: as §1, §2
For orientation: In ATP-based viability assays light output follows the ATP content of the culture.

The target in assay [2] is T2, BaF3/TEL-VEGFR2 (B/TV) cells (Homo sapiens, UniProt P35968+P41212).
T2 construct: fused to VEGFR2 (KDR) amino acids 807–1356; TEL (ETV6) amino acids 1–336 (N-terminal fusion partner); FLAG; expressed in transfected cells; host or cells: BaF3 (lentiviral pLentP TEL-VEGFR2)
T2 sequence (P41212+P35968 fused): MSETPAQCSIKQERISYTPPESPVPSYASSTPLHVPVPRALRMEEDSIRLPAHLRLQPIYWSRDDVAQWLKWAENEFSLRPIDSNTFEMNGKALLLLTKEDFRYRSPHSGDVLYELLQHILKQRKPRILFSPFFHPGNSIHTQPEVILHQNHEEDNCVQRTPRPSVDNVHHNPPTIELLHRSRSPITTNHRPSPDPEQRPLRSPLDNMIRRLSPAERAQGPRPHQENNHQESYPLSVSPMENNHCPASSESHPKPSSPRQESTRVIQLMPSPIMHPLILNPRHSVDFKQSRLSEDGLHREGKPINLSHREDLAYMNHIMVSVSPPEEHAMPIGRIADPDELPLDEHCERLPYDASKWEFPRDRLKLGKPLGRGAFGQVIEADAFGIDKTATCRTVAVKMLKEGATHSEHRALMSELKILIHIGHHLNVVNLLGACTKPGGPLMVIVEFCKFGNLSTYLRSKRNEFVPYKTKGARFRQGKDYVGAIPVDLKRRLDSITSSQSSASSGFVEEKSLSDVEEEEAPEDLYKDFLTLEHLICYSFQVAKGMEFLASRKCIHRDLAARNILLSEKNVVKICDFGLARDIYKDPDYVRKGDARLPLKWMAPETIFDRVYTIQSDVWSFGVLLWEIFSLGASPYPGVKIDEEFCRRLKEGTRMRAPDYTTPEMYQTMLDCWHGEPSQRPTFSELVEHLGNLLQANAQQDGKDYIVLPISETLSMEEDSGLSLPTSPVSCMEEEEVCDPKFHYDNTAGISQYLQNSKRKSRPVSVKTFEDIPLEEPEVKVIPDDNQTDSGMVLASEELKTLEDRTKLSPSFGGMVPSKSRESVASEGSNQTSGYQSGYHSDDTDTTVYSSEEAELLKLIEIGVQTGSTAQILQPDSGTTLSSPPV
As to the kind of experiment: Cell viability assay (CellTiter-Glo, 3 days) in B/TV cells. Conditions: TEL-VEGFR2-dependent BaF3 cells, 3 days; read-out: IC50 B/TV WT. As for the experimental part:
as §2

Assay [3] deals with BaF3/TEL-VEGFR2 (B/TV) cells. The description is as above. Conditions: ratio of B/TV IC50 to B/KR WT IC50. As for the experimental part:
as §2

Assay [4] concerns the target T3, B/KR(V804L) cells, KIF5B-RET V804L (Homo sapiens, UniProt P07949+P33176, V804L).
T3 construct: FLAG; expressed in transfected cells; host or cells: BaF3
T3 sequence (P07949 713-1063 V804L limits assumed): T1 sequence (P07949 713-1063 V804M limits assumed) with M92L
As to the kind of experiment: Cell viability assay (CellTiter-Glo, 3 days) in B/KR(V804L) cells. As for the experimental part: as §1, §2

The subject of assay [5] is KIF5B-RET autophosphorylation in B/KR and mutant cells. Put plainly: Immunoblotting analysis of cell lysates. Conditions: Fig. S1A. The text has this: Figure S1. Immunoblotting analyses of cell lysates.
(A) Immunoblotting analysis of compounds on inhibition of KR or its mutant kinase activity and
induction of apoptosis in B/KR and mutant cells. (B) Immunoblotting analysis of HSN748-treated
(1 picture or pasted object on this page, not shown here)
On the technique in general: Immunoblotting shows a protein as a band on a membrane.

In the case of `CN1CCN(Cc2ccc(NC(=O)c3cncc(C#Cc4cnc5cccnn45)c3)cc2C(F)(F)F)CC1` [HSN748], the IC50 was below 33 nM with B/KR(G810C/R/S) cells; 88 nM and 88.2 nM in assay [1]; 7.34 ± 0.09 nM in assay [2]; 55 nM and 55.7 nM in assay [4]. Further, the “VEGFR2/RET (fold)” value in assay [3] came to 1.81 fold. For the same molecule, the “KIF5B-RET autophosphorylation and apoptosis (immunoblotting)” value in assay [5] was “inhibit KIF5B-RET autophosphorylation and induce apoptosis at low nanomolar concentrations”.

As to `CCOc1ccc2ncc(C#Cc3cncc(C(=O)Nc4ccc(CN5CCN(C)CC5)c(C(F)(F)F)c4)c3)n2n1` [HSND14, 5-((6-Ethoxyimidazo[1,2-b]pyridazin-3-yl)ethynyl)-N-(4-((4-methylpiperazin-1-yl)methyl)-3-(trifluoromethyl)phenyl)nicotinamide], the IC50 with B/KR(G810C/R/S) cells was below 33 nM; in assay [1], 20 ± 0.89 nM; in assay [2], 6.88 ± 0.15 nM; in assay [4], 30 ± 1.2 nM. Besides, in assay [3], the “VEGFR2/RET (fold)” value was 1.71 fold. Besides, in assay [5], the “KIF5B-RET autophosphorylation and apoptosis (immunoblotting)” value was “inhibit KIF5B-RET autophosphorylation and induce apoptosis at low nanomolar concentrations”.

Turning to `Cc1n[nH]c2ncc(C#Cc3cncc(C(=O)Nc4ccc(CN5CCN(C)CC5)c(C(F)(F)F)c4)c3)cc12` [HSND19, 5-((3-Methyl-1H-pyrazolo[3,4-b]pyridin-5-yl)ethynyl)-N-(4-((4-methylpiperazin-1-yl)methyl)-3-(trifluoromethyl)phenyl)nicotinamide], the IC50 in the assay on B/KR(G810C/R/S) cells is below 33 nM; in assay [1], 6.52 ± 0.45 nM; in assay [2] it was 5.56 ± 1.11 nM; in assay [4], 20.6 ± 2.22 nM. Also, in assay [3], the “VEGFR2/RET (fold)” value turned out to be 2.85 fold. For the same molecule, the “KIF5B-RET autophosphorylation and apoptosis (immunoblotting)” value in assay [5] is “inhibit KIF5B-RET autophosphorylation and induce apoptosis at low nanomolar concentrations”.
